In US9169209B2, “Compounds and compositions for the inhibition of NAMPT” (FORMA TM, LLC, priority 2011, dated 2015):

Tests used:
A2780 cells = experiment: In-Vitro Cell Proliferation Assay (SRB, 72 hours); type: cell-based; details: Homo sapiens, A2780, 72 h, A2780 cells, 72 hours, sulforhodamine B; read-out: A2780 IC50
Procedure: After overnight incubation at 37° C. and 5% CO2, the compound titrations were performed in a separate dilution plate by serially diluting the compounds in DMSO to make a 1000× stock. The compounds were then further diluted to 10× final concentration in culture media, whereupon 20 μL of each dilution was added to the plated cells with controls (e.g. DMSO and blank) to make a final volume of 200 μL. The final DMSO concentration in each well was 0.1%. The plates were then incubated for 72 hours at 37° C. in a 5% CO2 incubator. The number of viable cells was then assessed using sulforhodamine B (SRB) assay. Cells were fixed at 4° C. for 1 hour with the addition of 50 μL 30% trichloroacetic acid (TCA) to make a final concentration of 6% TCA. The plates were washed four times with H2O and allowed to dry for at least 1 hour, whereupon 100 μL of a 4% SRB in 1% acetic acid solution was added to each well and incubated at room temperature for at least 30 minutes. The plates were then washed three times with 1% acetic acid, dried, and treated with 100 μL of 10 mM Tris-Base solution. The plates were then read in a microplate reader at an absorbance of 570 nm. Background was generated on a separate plate with media only.
First, the signals from the background plate are averaged and then the background was subtracted from the test plates.
wherein x denotes the average signal of the compound-treated cells and y denotes the average signal of the DMSO-treated cells.
wherein X denotes the compound concentration 1, Y denotes the compound concentration 2, XX denotes the % inhibition at compound concentration 1 (X), and YY denotes the % inhibition at compound concentration 2 (Y).

NAMPT = NAMPT (Homo sapiens (Human), UniProt P43490); experiment: Biochemical Inhibition Assay (NAMPT enzymatic reaction, NMN quantified by mass spectrometry); details: recombinant His-tagged NAMPT, 33 nM; 1 μM NAM; read-out: Biochem IC50
Chain of NAMPT (P43490 whole entry): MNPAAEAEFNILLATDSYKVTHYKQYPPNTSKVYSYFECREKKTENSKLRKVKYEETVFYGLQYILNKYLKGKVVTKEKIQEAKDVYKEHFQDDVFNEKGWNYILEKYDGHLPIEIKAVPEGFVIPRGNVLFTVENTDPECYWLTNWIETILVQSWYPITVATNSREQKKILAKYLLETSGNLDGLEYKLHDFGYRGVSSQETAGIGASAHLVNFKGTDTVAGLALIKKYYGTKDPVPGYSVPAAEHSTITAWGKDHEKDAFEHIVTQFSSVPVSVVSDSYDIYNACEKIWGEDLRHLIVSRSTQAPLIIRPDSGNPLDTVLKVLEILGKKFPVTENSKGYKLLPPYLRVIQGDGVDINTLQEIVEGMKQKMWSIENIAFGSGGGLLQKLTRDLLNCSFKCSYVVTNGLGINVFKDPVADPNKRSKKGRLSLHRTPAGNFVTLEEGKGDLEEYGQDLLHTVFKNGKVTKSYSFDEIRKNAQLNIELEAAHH
Procedure: Recombinant His-tagged NAMPT was produced in E. coli cells, purified over a Ni column, and further purified over a size-exclusion column by XTAL Biostructures.
The NAMPT enzymatic reactions were carried out in Buffer A (50 mM Hepes pH 7.5, 50 mM NaCl, 5 mM MgCl2, and 1 mM THP) in 96-well V-bottom plates. The compound titrations were performed in a separate dilution plate by serially diluting the compounds in DMSO to make a 100× stock. […] The compound and enzyme mix was incubated for 15 minutes at room temperature, then 10 μL of 10× substrate and co-factors in Buffer A were added to the test well to make a final concentration of 1 μM NAM, 100 μM 5-Phospho-D-ribose 1-diphosphate (PRPP), and 2.5 mM Adenosine 5′-triphosphate (ATP). The reaction was allowed to proceed for 30 minutes at room temperature, then was quenched with the addition of 11 μL of a solution of formic acid and L-Cystathionine to make a final concentration of 1% formic acid and 10 μM L-Cystathionine. Background and signal strength was determined by addition (or non-addition) of a serial dilution of NMN to a pre-quenched enzyme and cofactor mix.
A mass spectrometry-based assay was used to measure the NAMPT reaction product (NMN) and the internal control (L-Cystathionine). NMN and L-Cystathionine were detected using the services of Biocius Lifesciences with the RapidFire system. In short, the NMN and L-Cystathionine are bound to a graphitic carbon cartridge in 0.1% formic acid, eluted in 30% acetonitrile buffer, and injected into a Sciex 4000 mass spectrometer. The components of the sample were ionized with electrospray ionization and the positive ions were detected. […] The fragments are quantified and the analyzed by the following method.
First the NMN signal is normalized to the L-Cystathionine signal by dividing the NMN signal by the L-Cystathionine signal for each well. The signal from the background wells are averaged and subtracted from the test plates.
Wherein x denotes the average signal of the compound treated wells and y denotes the average signal of the DMSO treated wells.
IC50s are Determined Using Excel and this Formula.
Wherein X denotes the compound concentration 1, Y denotes the compound concentration 2, XX denotes the % inhibition at compound concentration 1 (X), and YY denotes the % inhibition at compound concentration 2 (Y).

SMILES	IC50 (A2780 cells)	IC50 (NAMPT)
COc1ccc(C(F)(F)F)cc1S(=O)(=O)c1ccc(NC(=O)/C=C/c2cccnc2)cc1 [(2E)-N-(4-{[2-methoxy-5-(trifluoromethyl)benzene]sulfonyl}phenyl)-3-(pyridin-3-yl)prop-2-enamide]	19 nM	24.2 nM
CCS(=O)(=O)c1cccc(S(=O)(=O)c2ccc(NC(=O)/C=C/c3cccnc3)cc2)c1 [(2E)-N-(4-{[3-(ethanesulfonyl)benzene]sulfonyl}phenyl)-3-(pyridin-3-yl)prop-2-enamide]	70.4 nM	17.3 nM
O=C(/C=C/c1cccnc1)Nc1ccc(S(=O)(=O)c2ccc(Cl)c(Cl)c2)cc1 [(2E)-N-{4-[(3,4-dichlorobenzene)sulfonyl]phenyl}-3-(pyridin-3-yl)prop-2-enamide]	100 to 1000 nM	72.9 nM
CCOc1cccc(S(=O)(=O)c2ccc(NC(=O)/C=C/c3cccnc3)cc2)c1 [(2E)-N-{4-[(3-ethoxybenzene)sulfonyl]phenyl}-3-(pyridin-3-yl)prop-2-enamide]	91.9 nM	57.2 nM
O=C(/C=C/c1cccnc1)Nc1ccc(S(=O)(=O)c2cncc3ccccc23)cc1 [(2E)-N-[4-(isoquinoline-4-sulfonyl)phenyl]-3-(pyridin-3-yl)prop-2-enamide]	21.7 nM	2.45 nM
Cn1ncc2cccc(S(=O)(=O)c3ccc(NC(=O)/C=C/c4cccnc4)cc3)c21 [(2E)-N-[4-(1-methyl-1H-indazole-7-sulfonyl)phenyl]-3-(pyridin-3-yl)prop-2-enamide]	100 to 1000 nM	8.9 nM
O=C(/C=C/c1cccnc1)Nc1ccc(S(=O)(=O)c2ccc(Cl)cc2)cc1 [(2E)-N-{4-[(4-chlorobenzene)sulfonyl]phenyl}-3-(pyridin-3-yl)prop-2-enamide]	100 to 1000 nM	43.5 nM
CC(C)CNC(=O)c1cccc(S(=O)(=O)c2ccc(NC(=O)/C=C/c3cccnc3)cc2)c1 [N-(2-methylpropyl)-3-({4-[(2E)-3-(pyridin-3-yl)prop-2-enamido]benzene}sulfonyl)benzamide]	100 to 1000 nM	21.3 nM
Cn1cc(S(=O)(=O)c2ccc(NC(=O)/C=C/c3cccnc3)cc2)cn1 [(2E)-N-[4-(1-methyl-1H-pyrazole-4-sulfonyl)phenyl]-3-(pyridin-3-yl)prop-2-enamide]	100 to 1000 nM	7.7 nM
Cc1ccc(S(=O)(=O)c2ccc(NC(=O)/C=C/c3cccnc3)cc2)cc1Cl [(2E)-N-{4-[(3-chloro-4-methylbenzene)sulfonyl]phenyl}-3-(pyridin-3-yl)prop-2-enamide]	199 nM	8.6 nM
CC(C)NC(=O)c1cccc(S(=O)(=O)c2ccc(NC(=O)/C=C/c3cccnc3)cc2)c1 [N-(propan-2-yl)-3-({4-[(2E)-3-(pyridin-3-yl)prop-2-enamido]benzene}sulfonyl)benzamide]	100 to 1000 nM	17.6 nM
COc1cc(Cl)ccc1S(=O)(=O)c1ccc(NC(=O)/C=C/c2cccnc2)cc1 [(2E)-N-{4-[(4-chloro-2-methoxybenzene)sulfonyl]phenyl}-3-(pyridin-3-yl)prop-2-enamide]	109 nM	7.3 nM
O=C(/C=C/c1cccnc1)Nc1ccc(S(=O)(=O)c2cc(Cl)cc(C(F)(F)F)c2)cc1 [(2E)-N-(4-{[3-chloro-5-(trifluoromethyl)benzene]sulfonyl}phenyl)-3-(pyridin-3-yl)prop-2-enamide]	58.3 nM	8.1 nM
O=C(/C=C/c1cccnc1)Nc1ccc(S(=O)(=O)N2CCC(N3CCOCC3)CC2)cc1 [(2E)-N-{4-[4-(morpholin-4-yl)piperidine-1-sulfonyl]phenyl}-3-(pyridin-3-yl)prop-2-enamide]	210 nM	10 nM
CCS(=O)(=O)Nc1cccc(S(=O)(=O)c2ccc(NC(=O)/C=C/c3cccnc3)cc2)c1 [(2E)-N-{4-[(3-ethanesulfonamidobenzene)sulfonyl]phenyl}-3-(pyridin-3-yl)prop-2-enamide]	100 to 1000 nM	8.1 nM
O=C(/C=C/c1cccnc1)Nc1ccc(S(=O)(=O)c2ccccc2)cc1 [(2E)-N-[4-(benzenesulfonyl)phenyl]-3-(pyridin-3-yl)prop-2-enamide]	81 nM	4 nM
COc1cc(Cl)cc(S(=O)(=O)c2ccc(NC(=O)/C=C/c3cccnc3)cc2)c1 [(2E)-N-{4-[(3-chloro-5-methoxybenzene)sulfonyl]phenyl}-3-(pyridin-3-yl)prop-2-enamide]	100 nM	22 nM
COc1ccc(Cl)cc1S(=O)(=O)c1ccc(NC(=O)/C=C/c2cccnc2)cc1 [(2E)-N-{4-[(5-chloro-2-methoxybenzene)sulfonyl]phenyl}-3-(pyridin-3-yl)prop-2-enamide]	12.6 nM	4.6 nM
O=C(/C=C/c1cccnc1)Nc1ccc(S(=O)(=O)c2cccc(C(=O)NC3CCCC3)c2)cc1 [N-cyclopentyl-3-({4-[(2E)-3-(pyridin-3-yl)prop-2-enamido]benzene}sulfonyl)benzamide]	100 to 1000 nM	16.1 nM
O=C(/C=C/c1cccnc1)Nc1ccc(S(=O)(=O)c2ccc(N3CCOCC3)cc2)cc1 [(2E)-N-(4-{[4-(morpholin-4-yl)benzene]sulfonyl}phenyl)-3-(pyridin-3-yl)prop-2-enamide]	55.3 nM	24.8 nM
O=C(/C=C/c1cccnc1)Nc1ccc(S(=O)(=O)c2ccc(OC(F)(F)F)cc2)cc1 [(2E)-3-(pyridin-3-yl)-N-(4-{[4-(trifluoromethoxy)benzene]sulfonyl}phenyl)prop-2-enamide]	100 to 1000 nM	167 nM
COc1ccc(F)cc1S(=O)(=O)c1ccc(NC(=O)/C=C/c2cccnc2)cc1 [(2E)-N-{4-[(5-fluoro-2-methoxybenzene)sulfonyl]phenyl}-3-(pyridin-3-yl)prop-2-enamide]	20.5 nM	14.5 nM
CCNC(=O)c1cccc(S(=O)(=O)c2ccc(NC(=O)/C=C/c3cccnc3)cc2)c1 [N-ethyl-3-({4-[(2E)-3-(pyridin-3-yl)prop-2-enamido]benzene}sulfonyl)benzamide]	100 to 1000 nM	7.3 nM
O=C(/C=C/c1cccnc1)Nc1ccc(S(=O)(=O)c2cccc3c2OCO3)cc1 [(2E)-N-[4-(2H-1,3-benzodioxole-4-sulfonyl)phenyl]-3-(pyridin-3-yl)prop-2-enamide]	75.1 nM	16.1 nM
Cc1cc(S(=O)(=O)c2ccc(NC(=O)/C=C/c3cccnc3)cc2)ccc1F [(2E)-N-{4-[(4-fluoro-3-methylbenzene)sulfonyl]phenyl}-3-(pyridin-3-yl)prop-2-enamide]	100 to 1000 nM	21.9 nM
O=C(/C=C/c1cccnc1)Nc1ccc(S(=O)(=O)c2cccc3ccccc23)cc1 [(2E)-N-[4-(naphthalene-1-sulfonyl)phenyl]-3-(pyridin-3-yl)prop-2-enamide]	18.1 nM	4.2 nM
Cc1cc(F)cc(S(=O)(=O)c2ccc(NC(=O)/C=C/c3cccnc3)cc2)c1 [(2E)-N-{4-[(3-fluoro-5-methylbenzene)sulfonyl]phenyl}-3-(pyridin-3-yl)prop-2-enamide]	108 nM	17.5 nM
COc1c(C)cc(S(=O)(=O)c2ccc(NC(=O)/C=C/c3cccnc3)cc2)cc1C [(2E)-N-{4-[(4-methoxy-3,5-dimethylbenzene)sulfonyl]phenyl}-3-(pyridin-3-yl)prop-2-enamide]	49.5 nM	6.7 nM
O=C(/C=C/c1cccnc1)Nc1ccc(S(=O)(=O)c2cccc(N3CCOCC3)c2)cc1 [(2E)-N-(4-{[3-(morpholin-4-yl)benzene]sulfonyl}phenyl)-3-(pyridin-3-yl)prop-2-enamide]	30.3 nM	9.2 nM
